The values that follow come from patent EP0185961A2, “1-Phenyl-imidazole-5-carboxylic acid derivatives, process for their preparation and their use as growth regulators” (HOECHST AKTIENGESELLSCHAFT, priority 1984, dated 1986).

Data set [1] concerns Reispflanzen. The note with it: in vivo.
Source text: (§4) Reispflanzen werden in Kleinparzellen (2 m x 2 m) angezogen und im Stadium der maximalen Bestockung mit erfindungsgemäßen Verbindungen behandelt. Die Substanzen werden sowohl durch Spritzung appliziert als auch in das Wasser gegeben.
(§5) 3 Wochen nach der Behandlung wird bei allen Pflanzen der Zuwachs gemessen und die Wuchshemmung in % des Zuwachses der Kontrollpflanzen berechnet. Es wird außerdem auf eine mögliche phytotoxische Wirkung der Verbindungen geachtet.
(§6) Die Wuchshemmung wird als prozentualer Wert ermittelt, wobei 100% den Stillstand des Wachstums und 0% ein Wachstum entsprechend dem der unbehandelten Kontrollpflanzen bedeuten.
In data set [2] the test system is Sojabohnen. In words: Growth inhibition in soybeans. The note with it: Glycine max, 504 h, read-out: Wuchsshemmung (%).
Source text: (§7) Etwa 10 cm große Sojabohnen werden mit den Wirkstoffzubereitungen tropfnaß bespritzt. Nach 3 Wochen wird bonitiert.
as §6
The subject of data set [3] is Reispflanzen. Kind of data set: Growth inhibition in paddy rice, small plots. Conditions: Oryza sativa, 504 h, read-out: Wuchsshemmung (%).
Source text: as §4, §5, §6
Data set [4] concerns Sojabohnen. Conditions: in vivo.
Source text: as §7, §6
The subject of data set [5] is Getreidepflanzen (Weizen, Gerste, Roggen). In words: Phytotoxic effect observed in the cereal growth inhibition test. The format is in vivo. The note with it: cereals; one cell for 2,5 and 1,25 kg/ha. An excerpt: (§1) In Schalenversuchen im Gewächshaus werden junge Getreidepflanzen (Weizen, Gerste, Roggen) im 3-Blattstadium mit erfindungsgemäßen Verbindungen in verschiedenen Wirkstoffkonzentrationen (kg/ha) tropfnaß gespritzt.
(§2) Es wird außerdem die phytotoxische Wirkung der Verbindung beobachtet.

For a further data set, the system named is Weizen. Kind of data set: Growth inhibition in cereals, greenhouse tray test, sprayed at 3-leaf stage. The format is in vivo. Conditions: % of growth increment of untreated controls (100% = growth standstill), read-out: Wuchsshemmung in % bei Weizen; for pest or weed control at 1250 g/ha: 1,25 kg/ha; for pest or weed control at 2500 g/ha: 2,5 kg/ha. An excerpt: (§3) In Schalenversuchen im Gewächshaus werden junge Getreidepflanzen (Weizen, Gerste, Roggen) im 3-Blattstadium mit erfindungsgemäßen Verbindungen in verschiedenen Wirkstoffkonzentrationen (kg/ha) tropfnaß gespritzt. […]

For the next data set, the system named is Roggen. The data set is described as above. The format is in vivo. The note with it: % of growth increment of untreated controls, read-out: Wuchsshemmung in % bei Roggen; for pest or weed control at 1250 g/ha: 1,25 kg/ha; for pest or weed control at 2500 g/ha: 2,5 kg/ha.
Source text: as §3

The test system of a further data set is Gerste. The data set is described as above. It is filed as in vivo. Conditions: % of growth increment of untreated controls, read-out: Wuchsshemmung in % bei Gerste; for pest or weed control at 1250 g/ha: 1,25 kg/ha; for pest or weed control at 2500 g/ha: 2,5 kg/ha.
Source text: as §1, §2

As for `CCc1cccc(CC)c1-n1cncc1C(=O)NN` [Beispiel 65], the “Phytotox. Wirkung” value (in the data set on Reispflanzen [1]; with Sojabohnen [4]; in data set [5]) was “keine Schäden” throughout. Besides, the pest or weed control at 2500 g/ha is 17% with Sojabohnen [2], 21% in the data set with Weizen, 24% in the data set with Roggen and 29% with Gerste. Further, the pest or weed control at 620 g/ha in the data set on Reispflanzen [3] is 14%. The pest or weed control at 1250 g/ha in the data set on Reispflanzen [3] turned out to be 21%; in the data set on Weizen it was 14%; in the data set on Roggen, 18%; in the data set on Gerste it was 19%.
On to `CCc1cccc(CC)c1-n1cncc1C(=O)OC(=O)c1cncn1-c1c(CC)cccc1CC` [Beispiel 115], for which the “Phytotox. Wirkung” value (with Reispflanzen [1]; in the data set on Sojabohnen [4]; in data set [5]) was “keine Schäden” in each case. Besides, the pest or weed control at 2500 g/ha with Sojabohnen [2] turned out to be 15%; in the data set with Weizen it was 24%; in the data set on Roggen, 31%; in the data set with Gerste, 38%. The pest or weed control at 620 g/ha in the data set on Reispflanzen [3] turned out to be 19%. Moreover, the pest or weed control at 1250 g/ha with Reispflanzen [3] was determined as 28%; in the data set with Weizen, 14%; with Roggen, 24%; in the data set on Gerste, 19%.
As to `CCc1cccc(CC)c1-n1cncc1C(=O)NNC(N)=O` [Beispiel 70], the “Phytotox. Wirkung” value (in the data set with Reispflanzen [1]; in the data set on Sojabohnen [4]; in data set [5]) was “keine Schäden” in each case. The pest or weed control at 2500 g/ha with Sojabohnen [2] was 19%; in the data set with Weizen it was 22%; in the data set with Roggen, 25%; in the data set on Gerste, 27%. In addition, the pest or weed control at 620 g/ha with Reispflanzen [3] was 14%. Also, the pest or weed control at 1250 g/ha in the data set with Reispflanzen [3] came out at 21%; with Weizen it was 12%; in the data set with Roggen it was 21%; in the data set on Gerste, 18%.
In the case of `CCc1cccc(CC)c1-n1cncc1C1=NC(C)(C)CO1` [Beispiel 6, 1-(2,6-Diethylphenyl)-5-(4,4-dimethyl-2-oxazolin-2-yl)-imidazol], the “Phytotox. Wirkung” value (in the data set on Reispflanzen [1]; with Sojabohnen [4]; in data set [5]) was “keine Schäden” each time. Besides, the pest or weed control at 2500 g/ha in the data set on Sojabohnen [2] was 19%; with Weizen, 17%; in the data set with Roggen, 17%; in the data set with Gerste, 25%. The pest or weed control at 620 g/ha with Reispflanzen [3] amounted to 11%. Besides, the pest or weed control at 1250 g/ha in the data set with Reispflanzen [3] is 18%; in the data set with Weizen, 8%; with Roggen, 9%; in the data set with Gerste, 13%.
Consider `CCc1cccc(CC)c1-n1cncc1-c1nnn[nH]1` [Beispiel 5, 1-(2,6-Diethylphenyl)-5-(5-tetrazolyl)-imidazol], for which the “Phytotox. Wirkung” value (with Reispflanzen [1]; in the data set on Sojabohnen [4]; in data set [5]) was “keine Schäden” in each case. The pest or weed control at 2500 g/ha in the data set on Sojabohnen [2] is 18%; with Weizen, 18%; with Roggen it was 21%; with Gerste it was 30%. For the same molecule, the pest or weed control at 620 g/ha with Reispflanzen [3] came out at 11%. The pest or weed control at 1250 g/ha was 19% in the data set with Reispflanzen [3], 9% with Weizen, 9% with Roggen and 13% in the data set on Gerste.
As for `CCOC(=O)CSC(=O)c1cncn1-c1c(CC)cccc1CC` [Beispiel 54], the “Phytotox. Wirkung” value (in the data set with Reispflanzen [1]; with Sojabohnen [4]; in data set [5]) was “keine Schäden” in each case. The pest or weed control at 2500 g/ha with Sojabohnen [2] is 19%; in the data set with Weizen, 22%; with Roggen, 24%; with Gerste it was 33%. Moreover, the pest or weed control at 620 g/ha in the data set on Reispflanzen [3] worked out at 14%. For the same molecule, the pest or weed control at 1250 g/ha in the data set with Reispflanzen [3] was 21%; in the data set on Weizen, 13%; in the data set on Roggen it was 18%; with Gerste, 19%.
`CCc1cccc(CC)c1-n1cncc1C(=O)NS(=O)(=O)c1ccccc1Cl` [Beispiel 103]: the “Phytotox. Wirkung” value (in the data set with Reispflanzen [1]; with Sojabohnen [4]; in data set [5]) was “keine Schäden” in each case. For the same molecule, the pest or weed control at 2500 g/ha in the data set on Sojabohnen [2] came out at 22%; with Weizen, 23%; in the data set with Roggen it was 27%; in the data set with Gerste, 29%. Further, the pest or weed control at 620 g/ha with Reispflanzen [3] amounted to 15%. Also, the pest or weed control at 1250 g/ha in the data set on Reispflanzen [3] came to 21%; with Weizen it was 16%; in the data set with Roggen, 16%; with Gerste, 19%.
